According to article PMC3271139 (Nature, 2012):

What was measured:
[1] = target: T1, truncated, His-tagged human CYP17A1 (Homo sapiens, UniProt P05093, C22K/P23T/R20A/R21K); test: UV/vis spectral shift ligand binding assay
T1 sequence (P05093 with tags, fused parts or gaps limits assumed): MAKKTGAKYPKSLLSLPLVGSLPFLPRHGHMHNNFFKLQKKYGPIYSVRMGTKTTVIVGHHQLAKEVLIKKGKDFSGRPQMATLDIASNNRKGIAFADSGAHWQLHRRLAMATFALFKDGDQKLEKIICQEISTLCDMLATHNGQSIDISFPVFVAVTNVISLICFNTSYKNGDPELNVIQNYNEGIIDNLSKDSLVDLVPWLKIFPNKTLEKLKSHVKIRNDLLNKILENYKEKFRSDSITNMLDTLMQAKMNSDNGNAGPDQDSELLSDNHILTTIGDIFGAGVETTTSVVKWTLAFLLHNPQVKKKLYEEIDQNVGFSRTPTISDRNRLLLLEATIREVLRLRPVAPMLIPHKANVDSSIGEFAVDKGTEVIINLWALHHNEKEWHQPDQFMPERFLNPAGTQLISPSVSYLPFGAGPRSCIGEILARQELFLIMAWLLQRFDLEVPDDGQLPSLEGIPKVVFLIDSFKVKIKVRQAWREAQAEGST

truncated human CYP17A1 = target: T2, truncated human CYP17A1 (Homo sapiens, UniProt P05093, C22K/P23T/R20A/R21K); test: Progesterone 17α-hydroxylation, HPLC separation with UV detection; type: biochemical
T2 sequence (P05093 with tags, fused parts or gaps limits assumed): T1 sequence (P05093 with tags, fused parts or gaps limits assumed)

Kd [1] [nM]	IC50 (truncated human CYP17A1) [nM]	Compound
229 ± 14		CC(=O)[C@H]1CC[C@H]2[C@@H]3CCC4=CC(=O)CC[C@]4(C)[C@H]3CC[C@]12C [progesterone]
< 100	503 ± 1	C[C@]12CC[C@H](O)CC1=CC[C@@H]1[C@@H]2CC[C@]2(C)C(n3cnc4ccccc43)=CC[C@@H]12 [TOK-001, 3β-hydroxy-17-(1H-benzimidazole-1-yl)androsta-5,16-diene]
< 100	201 ± 1	C[C@]12CC[C@H](O)CC1=CC[C@@H]1[C@@H]2CC[C@]2(C)C(c3cccnc3)=CC[C@@H]12 [abiraterone, 17-(3-pyridyl)androsta-5,16-dien-3β-ol]
